From US4311842A, “Cephalosporin compounds” (Yamanouchi Pharmaceutical Co., Ltd., priority 1978, dated 1982)
In brackets after ≈: the same amount, converted by molar mass.

How the values were obtained:
Format in all cases: cell-based
[1] = test system: Staphylococcus aureus 209P; assay: Antibacterial activity, minimum inhibitory concentration, Staphylococcus aureus 209P
Source text: (§1) The antibacterial activity (the minimum inhibitory concentration) of the compounds of this invention shown by formula I is shown in the following table in comparison to those of known compounds having similar structures, 7-[2-amino-2-(2-aminothiazol-4-yl)acetamido]-3-(1-methyl-tetrazol-5-yl)thiomethyl-Δ^3 -cephem-4-carboxylic acid (Compound A) having the following formula [drawing 8] and 7-[2-amino-2-(2-aminothiazol-4-yl)acetamido]cephalosporanic acid Compound B) having the following formula; [drawing 9]

[2] = test system: Bacillus subtilis ATCC 6633; assay: Antibacterial activity, minimum inhibitory concentration, Bacillus subtilis ATCC 6633; details: ATCC6633
Source text: as §1

[3] = test system: Staphylococcus aureus ATCC 6538P; assay: Antibacterial activity, minimum inhibitory concentration, Staphylococcus aureus ATCC 6538P; details: ATCC6538P
Source text: as §1

[4] = test system: Salmonella enteritidis 1891; assay: Antibacterial activity, minimum inhibitory concentration, Salmonella enteritidis 1891; details: Salmonella enterica
Source text: as §1

Corynebacterium xerosis = assay: Antibacterial activity, minimum inhibitory concentration, Corynebacterium xerosis
Source text: as §1

Vibrio Hy 133 = assay: Antibacterial activity, minimum inhibitory concentration, Vibrio Hy 133; details: HY133
Source text: as §1

[5] = test system: Pseudomonas aeruginosa NCTC 10490; assay: Antibacterial activity, minimum inhibitory concentration, Pseudomonas aeruginosa NCTC 10490; details: NCTC10490
Source text: as §1

[6] = test system: Staphylococcus aureus Oonuma; assay: Antibacterial activity, minimum inhibitory concentration, Staphylococcus aureus Oonuma; details: Staphylococcus aureus Oonuma (penicillin, Streptomycin-resistant)
Source text: as §1

Proteus vulgaris OXK US = assay: Antibacterial activity, minimum inhibitory concentration, Proteus vulgaris OXK US
Source text: as §1

[7] = test system: Pseudomonas aeruginosa 99; assay: Antibacterial activity, minimum inhibitory concentration, Pseudomonas aeruginosa 99; details: Pseudomonas aeruginosa 99 (Gentamicin-resistant)
Source text: as §1

[8] = test system: Proteus mirabilis IFM OM-9; assay: Antibacterial activity, minimum inhibitory concentration, Proteus mirabilis IFM OM-9; details: IFMOM9
Source text: as §1

[9] = test system: Pseudomonas aeruginosa ATCC 8689; assay: Antibacterial activity, minimum inhibitory concentration, Pseudomonas aeruginosa ATCC 8689; details: ATCC8689
Source text: as §1

Structure (SMILES)	MIC [1] [µg/mL]	MIC [2] [µg/mL]	MIC [3] [µg/mL]	MIC [4] [µg/mL]	MIC (Corynebacterium xerosis) [µg/mL]	MIC (Vibrio Hy 133) [µg/mL]	MIC [5] [µg/mL]	MIC [6] [µg/mL]	MIC (Proteus vulgaris OXK US) [µg/mL]	MIC [7] [µg/mL]	MIC [8] [µg/mL]	MIC [9] [µg/mL]
CC(=O)OCC1=C(C(=O)O)N2C(=O)C(NC(=O)C(NC(=O)c3cnc(C)cc3O)c3cscn3)C2SC1 (racemic) [Example 1, DL-7-[2-(4-hydroxy-6-methylnicotinamido)-2-(thiazol-4-yl)acetamido]-cephalosporanic acid]	1.56 (≈ 2.85 µM)	3.13 (≈ 5.72 µM)	3.13 (≈ 5.72 µM)	3.13 (≈ 5.72 µM)	3.13 (≈ 5.72 µM)	0.78 (≈ 1.42 µM)	1.56 (≈ 2.85 µM)	6.25 (≈ 11.4 µM)	1.56 (≈ 2.85 µM)	25 (≈ 45.7 µM)	3.13 (≈ 5.72 µM)	25 (≈ 45.7 µM)
CC(=O)OCC1=C(C(=O)O)N2C(=O)C(NC(=O)C(NC(=O)c3cnc(C)cc3O)c3csc(N)n3)C2SC1 (racemic) [Example 2, DL-7-[2-(4-hydroxy-6-methylnicotinamido)-2-(2-aminothiazol-4-yl)acetamido]cephalosporanic acid]	3.13 (≈ 5.56 µM)	6.25 (≈ 11.1 µM)	6.25 (≈ 11.1 µM)	0.78 (≈ 1.39 µM)	6.25 (≈ 11.1 µM)	0.78 (≈ 1.39 µM)	1.56 (≈ 2.77 µM)	12.5 (≈ 22.2 µM)	0.78 (≈ 1.39 µM)	25 (≈ 44.4 µM)	0.39 (≈ 0.693 µM)	50 (≈ 88.9 µM)
CC(=O)OCC1=C(C(=O)O)N2C(=O)C(NC(=O)C(NC(=O)c3csccc3=O)c3csc(N)n3)C2SC1 (racemic) [Example 3, DL-7-[2-(2-aminothiazol-4-yl)-2-(4-oxo-4H-thiopyran-3-carboxamido)-acetamido]cephalosporanic acid]	1.56 (≈ 2.76 µM)	3.13 (≈ 5.53 µM)	3.13 (≈ 5.53 µM)	0.39 (≈ 0.69 µM)	3.13 (≈ 5.53 µM)	0.78 (≈ 1.38 µM)	25 (≈ 44.2 µM)	6.25 (≈ 11 µM)	1.56 (≈ 2.76 µM)	100 (≈ 177 µM)	0.78 (≈ 1.38 µM)	100 (≈ 177 µM)
CC(=O)OCC1=C(C(=O)O)N2C(=O)C(NC(=O)C(NC(=O)c3csccc3=O)c3cscn3)C2SC1 (racemic) [Example 4, DL-7-[2-(4-oxo-4H-thiopyran-3-carboxamido)-2-(thiazol-4-yl)acetamido]cephalosporanic acid]	1.56 (≈ 2.83 µM)	1.56 (≈ 2.83 µM)	1.56 (≈ 2.83 µM)	6.25 (≈ 11.4 µM)	1.56 (≈ 2.83 µM)	0.78 (≈ 1.42 µM)	6.25 (≈ 11.4 µM)	6.25 (≈ 11.4 µM)	3.13 (≈ 5.68 µM)	100 (≈ 182 µM)	6.25 (≈ 11.4 µM)	100 (≈ 182 µM)
Cn1nnnc1SCC1=C(C(=O)O)N2C(=O)C(NC(=O)C(NC(=O)c3csccc3=O)c3cscn3)C2SC1 (racemic) [Example 5, DL-7-[2-(4-oxo-4H-thiopyran-3-carboxamido)-2-(thiazol-4-yl)acetamido]-3-(1-methyltetrazol-5-yl)thiomethyl-Δ^3-cephem-4-carboxylic acid]	0.78 (≈ 1.29 µM)	3.13 (≈ 5.16 µM)	1.56 (≈ 2.57 µM)	0.78 (≈ 1.29 µM)	3.13 (≈ 5.16 µM)	0.39 (≈ 0.643 µM)	1.56 (≈ 2.57 µM)	6.25 (≈ 10.3 µM)	1.56 (≈ 2.57 µM)	50 (≈ 82.4 µM)	1.56 (≈ 2.57 µM)	50 (≈ 82.4 µM)
Cn1nnnc1SCC1=C(C(=O)O)N2C(=O)C(NC(=O)C(NC(=O)c3csccc3=O)c3csc(N)n3)C2SC1 (racemic) [Example 6, DL-7-[2-(2-aminothiazol-4-yl)-2-(4-oxo-4H-thiopyran-3-carboxyamido)acetamido]-3-(1-methyltetrazol-5-yl)thiomethyl-Δ^3-cephem-4-carboxylic acid]	0.78 (≈ 1.25 µM)	1.56 (≈ 2.51 µM)	1.56 (≈ 2.51 µM)	0.19 (≈ 0.306 µM)	1.56 (≈ 2.51 µM)	0.78 (≈ 1.25 µM)	0.78 (≈ 1.25 µM)	3.13 (≈ 5.03 µM)	0.19 (≈ 0.306 µM)	50 (≈ 80.4 µM)	0.09 (≈ 0.145 µM)	50 (≈ 80.4 µM)
Cc1cc(O)c(C(=O)NC(C(=O)NC2C(=O)N3C(C(=O)O)=C(CSc4nnnn4C)CSC23)c2csc(N)n2)cn1 (racemic) [Example 7, DL-7-[2-(2-aminothiazol-4-yl)-2-(4-hydroxy-6-methylnicotinamido)acetamido]-3-(1-methyltetrazol-5-yl)thiomethyl-Δ^3-cephem-4-carboxylic acid]	1.56 (≈ 2.52 µM)	3.13 (≈ 5.06 µM)	1.56 (≈ 2.52 µM)	0.09 (≈ 0.145 µM)	6.25 (≈ 10.1 µM)	0.78 (≈ 1.26 µM)	0.39 (≈ 0.63 µM)	6.25 (≈ 10.1 µM)	0.19 (≈ 0.307 µM)	12.5 (≈ 20.2 µM)	0.09 (≈ 0.145 µM)	25 (≈ 40.4 µM)
Cc1cc(O)c(C(=O)NC(C(=O)NC2C(=O)N3C(C(=O)O)=C(CSc4nnnn4C)CSC23)c2cscn2)cn1 (racemic) [Example 8, DL-7-[2-(4-hydroxy-6-methylnicotinamido)-2-(thiazol-4-yl)-acetamido]-3-(1-methyltetrazol-5-yl)thiomethyl-Δ^3-cephem-4-carboxylic acid]	1.56 (≈ 2.58 µM)	3.13 (≈ 5.18 µM)	1.56 (≈ 2.58 µM)	0.78 (≈ 1.29 µM)	3.13 (≈ 5.18 µM)	0.78 (≈ 1.29 µM)	0.78 (≈ 1.29 µM)	6.25 (≈ 10.4 µM)	1.56 (≈ 2.58 µM)	12.5 (≈ 20.7 µM)	1.56 (≈ 2.58 µM)	25 (≈ 41.4 µM)
Cn1nnnc1SCC1=C(C(=O)O)N2C(=O)C(NC(=O)C(N)c3csc(N)n3)C2SC1 (stereo not drawn) [Compound A, 7-[2-amino-2-(2-aminothiazol-4-yl)acetamido]-3-(1-methyl-tetrazol-5-yl)thiomethyl-Δ^3-cephem-4-carboxylic acid, reference compound]	12.5 (≈ 25.8 µM)	12.5 (≈ 25.8 µM)	25 (≈ 51.7 µM)	0.78 (≈ 1.61 µM)	25 (≈ 51.7 µM)	6.25 (≈ 12.9 µM)	100 (≈ 207 µM)	100 (≈ 207 µM)	6.25 (≈ 12.9 µM)	> 100	1.56 (≈ 3.23 µM)	> 100
CC(=O)OCC1=C(C(=O)O)N2C(=O)C(NC(=O)C(N)c3csc(N)n3)C2SC1 (stereo not drawn) [Compound B, 7-[2-amino-2-(2-aminothiazol-4-yl)acetamido]cephalosporanic acid, reference compound]	3.13 (≈ 7.32 µM)	1.56 (≈ 3.65 µM)	3.13 (≈ 7.32 µM)	0.78 (≈ 1.82 µM)	3.13 (≈ 7.32 µM)	1.56 (≈ 3.65 µM)	> 100	12.5 (≈ 29.2 µM)	3.13 (≈ 7.32 µM)	> 100	1.56 (≈ 3.65 µM)	> 100
